Test results: patent US10294212B2 (CURADEV PHARMA PRIVATE LTD., priority 2013, dated 2019)

Tests used:
[1] = biological target: Human indoleamine 2,3-dioxygenase1 (hIDO1) (Homo sapiens (Human), UniProt P14902); assay: In-vitro IDO1 enzyme assay (conversion of L-tryptophan to KYN); type: biochemical; conditions: read-out: IC50 (IDO1) Enz
In short: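 Kynurenine formation quantified by HPLC absorbance at 360 nm or LC/MS/MS after TCA quench and 15 min at 65 °C. Reaction: 10 nM N-His hIDO1, 30 μM tryptophan, ascorbate/methylene blue/catalase, pH 6.5 phosphate buffer, 37 °C for 30 min. Inhibition relative to 1% DMSO vehicle, fitted to IC50.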

IDO1 in HeLa cells = IDO1 in HeLa cells (Homo sapiens (Human), UniProt P14902); assay: HeLa cell based IDO1 assay (IFNγ-induced, KYN in supernatant)
In short: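 Kynurenine in the supernatant, quantified by C-18 HPLC with 360 nm absorbance after TCA hydrolysis (65 °C, 15 min), was the read-out. Compounds (typically 10 μM to 1 nM) were added in HBSS containing 80 μM tryptophan to HeLa cells pre-induced overnight with 50 ng/mL IFNγ. IC50 came from nonlinear fits of % inhibition versus 1% DMSO vehicle.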

[2] = biological target: Human TDO (hTDO)-transfected CHO-K1 cells (Homo sapiens (Human), UniProt P48775); assay: CHO-K1 cell based TDO assay; conditions: hTDO cellular assay
In short: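 Kynurenine output was read by LC/MS/MS after TCA precipitation and 15 min at 65° C. Before that, CHO-K1 cells stably carrying human TDO2 were incubated 2 h with compounds (typically 31 μM to 10 nM) and 80 μM L-tryptophan in HBSS. Decrease versus DMSO vehicle gave percent inhibition, then IC50.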

Sequence of Human TDO (hTDO)-transfected CHO-K1 cells (P48775 whole entry): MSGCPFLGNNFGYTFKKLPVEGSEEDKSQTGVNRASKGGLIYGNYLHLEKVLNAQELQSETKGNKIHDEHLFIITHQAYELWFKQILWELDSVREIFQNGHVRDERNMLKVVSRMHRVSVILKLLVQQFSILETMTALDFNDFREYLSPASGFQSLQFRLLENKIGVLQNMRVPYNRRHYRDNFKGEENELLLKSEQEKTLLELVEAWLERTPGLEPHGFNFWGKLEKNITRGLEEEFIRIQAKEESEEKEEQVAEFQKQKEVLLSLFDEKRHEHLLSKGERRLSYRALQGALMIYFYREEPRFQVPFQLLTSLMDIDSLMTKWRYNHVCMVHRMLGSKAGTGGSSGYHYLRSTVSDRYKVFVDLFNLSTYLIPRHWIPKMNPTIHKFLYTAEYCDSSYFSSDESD
Sequence of Human indoleamine 2,3-dioxygenase1 (hIDO1) (P14902 whole entry): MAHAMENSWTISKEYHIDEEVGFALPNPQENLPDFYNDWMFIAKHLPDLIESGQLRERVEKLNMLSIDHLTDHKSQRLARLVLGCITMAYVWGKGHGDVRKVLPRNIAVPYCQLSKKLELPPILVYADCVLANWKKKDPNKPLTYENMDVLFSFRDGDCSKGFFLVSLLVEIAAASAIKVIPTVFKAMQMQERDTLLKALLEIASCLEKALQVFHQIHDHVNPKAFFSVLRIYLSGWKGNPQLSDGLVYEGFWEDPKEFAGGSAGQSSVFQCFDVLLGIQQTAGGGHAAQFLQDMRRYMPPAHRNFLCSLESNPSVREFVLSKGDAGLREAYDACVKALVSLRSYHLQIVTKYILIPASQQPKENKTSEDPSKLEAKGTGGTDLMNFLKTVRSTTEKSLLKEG
Sequence of IDO1 in HeLa cells (P14902 whole entry): as above

IC50 [1] | IC50 (IDO1 in HeLa cells) | IC50 [2] | Compound
< 200 nM | < 200 nM | 500 to 2000 nM | Nc1oc2cnccc2c1Nc1ccc(F)c(Cl)c1 [Compound 2, N^3-(3-Chloro-4-fluoro-phenyl)-furo[2,3-c]pyridine-2,3-diamine]
< 200 nM | < 200 nM | < 500 nM | Nc1oc2c(-c3ccncc3)nccc2c1Nc1ccc(F)c(Cl)c1 [Compound 97, N^3-(3-Chloro-4-fluorophenyl)-7-(pyridin-4-yl)furo[2,3-c]pyridine-2,3-diamine]
< 200 nM | < 200 nM | < 500 nM | Nc1oc2c(-c3ccncc3)nccc2c1Nc1ccc(F)c(F)c1 [Compound 184, N^3-(3,4-difluorophenyl)-7-(pyridin-4-yl)furo[2,3-c]pyridine-2,3-diamine]
